Where “and” joins values, the source holds several entries; their conditions need not be identical. Equal entries are not always repeated.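 Where inhibition never reached the appropriate level, the endpoint shown equals the highest concentration tested. Otherwise, values were interpolated linearly from a five-concentration, 48-hour dose response in 96-well plates. Abbreviation: GI50, concentration required for 50% inhibition of growth. Definition used: TGI = concentration required for complete inhibition of growth.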
Legend:
Assay in all cases: inhibition of tumour cell growth, NCI panel, 48 h
NCI-H226 lung = test system: NCI-H226 lung
SK-MEL-5 melanoma = test system: SK-MEL-5 melanoma
KM20L2 colon = test system: KM20L2 colon
RPMI-8226 leukemia = test system: RPMI-8226 leukemia
UACC-257 melanoma = test system: UACC-257 melanoma
MALME-3M melanoma = test system: MALME-3M melanoma
CCRF-CEM leukemia = test system: CCRF-CEM leukemia
UACC-62 melanoma = test system: UACC-62 melanoma
IGROV1 ovarian = test system: IGROV1 ovarian

Row | Compound | TGI (NCI-H226 lung) | TGI (SK-MEL-5 melanoma) | TGI (KM20L2 colon) | TGI (RPMI-8226 leukemia) | TGI (UACC-257 melanoma) | TGI (MALME-3M melanoma) | TGI (CCRF-CEM leukemia) | TGI (UACC-62 melanoma) | GI50 (NCI-H226 lung) | GI50 (SK-MEL-5 melanoma) | GI50 (RPMI-8226 leukemia) | GI50 (UACC-257 melanoma) | GI50 (MALME-3M melanoma) | GI50 (CCRF-CEM leukemia) | GI50 (UACC-62 melanoma) | GI50 (IGROV1 ovarian) | TGI (IGROV1 ovarian)
1 | O=C1CCCCCCC2=C1C(Sc1ccccc1)CC2 (configuration not stated) | > 100 µM | > 100 µM | > 100 µM | 95.5 µM | > 100 µM | > 100 µM | 67.8 µM | > 100 µM | – | – | – | – | – | – | – | – | –
2 | COC[C@H](NC(=O)c1cnc(C)s1)C(=O)N[C@@H](COC)C(=O)N[C@@H](Cc1ccccc1)C(=O)[C@@]1(C)CO1 | 46.6 µM | 47.1 µM | – | > 100 µM | > 70.8 µM | 64 µM | > 100 µM | 39 µM | 17.4 µM | 19.9 µM | 18.5 µM | 21.1 µM | 22 µM | 21.3 µM | 15.8 µM | 38.8 µM | > 100 µM
3 | CC(=O)OC12C(C)=C(C)C(=O)N1c1ccccc1N2C(C)=O (configuration not stated) | > 100 µM | > 100 µM | > 100 µM | > 100 µM | > 100 µM | – | > 100 µM | > 100 µM | – | – | – | – | – | – | – | – | > 100 µM
4 | OC1CC2CCC(C1)N2CCCN1c2ccccc2Sc2ccc(Cl)cc21 (configuration not stated) | 15.2 µM | 3.13 µM | – | 4.42 µM | 2.6 µM | 3.59 µM | 4.23 µM | 3.39 µM | – | – | – | – | – | – | – | – | 5.01 µM
5 | CSc1ccc(C2=NN(C(C)=O)C(c3ccc(-c4cc(Cl)c(Cl)cc4Cl)o3)C2)cc1 (configuration not stated) | 27.3 µM | 25.1 µM | – | 41 µM | 42.7 µM | 39.9 µM | 47 µM | 21.8 µM | 13.9 µM | 12.6 µM | 10.9 µM | 22.8 µM | 19.5 µM | 21.5 µM | 10.2 µM | 9.99 µM | 24.9 µM
6 | NC(=O)c1cc(N2CC2)c([N+](=O)[O-])cc1[N+](=O)[O-] | > 200 µM | > 200 µM | – | > 200 µM | > 200 µM | > 200 µM | > 200 µM | > 200 µM | > 200 µM | – | > 200 µM | > 200 µM | – | > 200 µM | > 200 µM | > 200 µM | > 200 µM
7 | CC(=O)O.CN1[CH-]N(Cc2ccc(C#N)cc2)c2ccccc21.[Ag+] | 50.9 µM | 27.6 µM | – | > 100 µM | 29.7 µM | 41.5 µM | 61.1 µM | 31 µM | 16.7 µM | 12.7 µM | 31.3 µM | 14.8 µM | 19.8 µM | 22.2 µM | 16.4 µM | 20.9 µM | 46.7 µM
8 | Cc1ccc(CNc2ccc3nc(CCC4CCCCC4)[nH]c3c2)cc1 | 3.92 µM | 3.09 µM | – | 4.64 µM | 6.44 µM | 4.07 µM | > 100 µM | 3.4 µM | 1.77 µM | 1.69 µM | 2.03 µM | 2.37 µM | 1.74 µM | 3.29 µM | 1.74 µM | 2.28 µM | 10.3 µM
9 | CC1=CCC2CC1C(C(=O)c1c[nH]c3ccccc13)=NC2(C)C (configuration not stated) | > 100 µM | > 100 µM | – | > 100 µM | 93.4 µM | > 100 µM | > 100 µM | > 100 µM | – | – | – | – | – | – | – | – | > 100 µM
10 | CCC(CC)n1cnc2c(-c3cnc(N)cn3)nc(N3CC4CCC(C3)O4)nc21 | > 100 µM | 1.21 µM | – | 5.75 µM | 4.07 µM | 0.688 µM | > 100 µM | 0.929 µM | 0.549 µM | 0.138 µM | 0.102 µM | 0.289 µM | 0.0472 µM | 0.443 µM | 0.122 µM | 0.0929 µM | 1.13 µM
11 | COc1ccccc1C#Cc1ccccc1C#Cc1ccc(OCCCCCCOc2ccccc2C#Cc2ccccc2C#Cc2ccccc2OC)cc1 | > 100 µM | > 100 µM | – | > 100 µM | > 100 µM | > 100 µM | > 100 µM | > 100 µM | > 100 µM | > 100 µM | > 100 µM | > 100 µM | > 100 µM | > 100 µM | > 100 µM | > 100 µM | > 100 µM
12 | O=S(=O)(N=C1C(Cl)=C(Cl)C(=NS(=O)(=O)c2ccccc2)C(Cl)=C1Cl)c1ccccc1 | 56.2 µM | 36.5 µM | – | > 100 µM | 86.3 µM | 56.4 µM | 90.9 µM | 38.4 µM | 21.6 µM | 13.9 µM | 23.9 µM | 24 µM | 18.5 µM | 14.8 µM | 13.3 µM | 18.7 µM | 40.7 µM
13 | Cc1ccc2c(C(C[N+](=O)[O-])c3ccccc3)c(-c3ccccc3)[nH]c2c1 (configuration not stated) | > 95 µM | > 95 µM | – | > 95 µM | > 95 µM | > 95 µM | > 95 µM | > 95 µM | 62.4 µM | 50.6 µM | 36.8 µM | 29.3 µM | 10.2 µM | 25.2 µM | 14.1 µM | 13.4 µM | > 95 µM
14 | O=[N+]([O-])c1nccn1CC(O)c1ccccc1 (configuration not stated) | > 100 µM | > 100 µM | > 100 µM | > 100 µM | > 100 µM | > 100 µM | > 100 µM | > 100 µM | – | – | – | – | – | – | – | – | > 100 µM
15 | O=C(c1c(F)c(F)c(F)c(F)c1F)c1c(F)c(F)c(F)c(F)c1F | 8.96 µM | 8.24 µM | – | 4.71 µM | 4.65 µM | 3.23 µM | 1.15 µM | 3.97 µM | – | – | – | – | – | – | – | – | 2.64 µM
16 | COc1ccc2cc(-c3cnc4nonc4n3)ccc2c1 | > 100 µM | 8.5 µM | – | 17.5 µM | > 100 µM | > 100 µM | > 100 µM | > 100 µM | 6.43 µM | 1.24 µM | 0.685 µM | 7.89 µM | 4.03 µM | 1.62 µM | 2.32 µM | 15.3 µM | > 100 µM
17 | Cn1ncc(Cl)c1-c1cc(C(=O)N[C@H](CN)Cc2cccc(F)c2)sc1Cl | > 10 µM and 32.2 µM | 3.99 µM and 8.3 µM | – | 5.8 µM and 6.11 µM | 3.71 µM and 9.91 µM | 2.61 µM and 2.99 µM | > 10 µM and 10.5 µM | > 5.59 µM and 11.6 µM | > 4.48 µM and 11.6 µM | 1.96 µM and 3.64 µM | 1.65 µM and 2.06 µM | 1.44 µM and 2.88 µM | 1.08 µM and 0.969 µM | 0.349 µM and 0.294 µM | 1.07 µM and 1.46 µM | 0.0387 µM and 0.0478 µM | 2.65 µM and 4.18 µM
18 | CC1=C(C#N)C23C(=O)N(c4ccccc4)C(=O)C2=C(O)C=CC3(O)N1Cc1ccc(Cl)cc1Cl (configuration not stated) | 9.96 µM | 17 µM | – | 4.22 µM | 27 µM | 9.95 µM | 4.28 µM | 4.4 µM | 2.54 µM | 5.19 µM | 1.63 µM | 13.2 µM | 3.14 µM | 1.59 µM | 1.88 µM | 2.86 µM | 7.19 µM
19 | O=C(O)c1cccc(S(=O)(=O)NCCO)c1 | > 100 µM | > 100 µM | – | > 100 µM | > 100 µM | > 100 µM | > 100 µM | > 100 µM | – | – | – | – | – | – | – | – | > 100 µM
20 | C=C(C)[C@@H]1CC[C@]2(CO)CC[C@]3(C)[C@H](CC[C@@H]4[C@@]5(C)CCCNC(C)(C)[C@@H]5CC[C@]43C)[C@@H]12 | 4.09 µM | 2.7 µM | – | 4.51 µM | 3.73 µM | 3.05 µM | 4.91 µM | 3.25 µM | 1.98 µM | 1.38 µM | 1.94 µM | 1.95 µM | 1.5 µM | 2.07 µM | 1.82 µM | 1.66 µM | 3.26 µM
21 | O=C(CC1(O)C(=O)Nc2c(Cl)cc(Cl)cc21)c1ccccc1 (configuration not stated) | > 100 µM | > 100 µM | > 100 µM | > 100 µM | > 100 µM | > 100 µM | – | > 100 µM | – | – | – | – | – | – | – | – | > 100 µM
22 | COc1ccc(Nc2nc(NCCNc3ccnc4cc(Cl)ccc34)nc(N3CCOCC3)n2)cc1 | 18.3 µM | 3.04 µM | – | 13.1 µM | 3.61 µM | 3.47 µM | 15.4 µM | 3.59 µM | 3.89 µM | 1.59 µM | 2.75 µM | 1.87 µM | 1.94 µM | 2.95 µM | 1.85 µM | 8.43 µM | 23.4 µM
23 | NC(=S)N/N=C/c1ccc(OC(=O)COc2cc(Cl)c(Cl)cc2Cl)cn1 | 56.7 µM | 59.6 µM | – | > 100 µM | 51.5 µM | > 100 µM | > 100 µM | 22.4 µM | 15.8 µM | 3.42 µM | 7.29 µM | 11 µM | 4.96 µM | 2.8 µM | 3.46 µM | 7.65 µM | > 100 µM
24 | Cc1ccc(OCC2CO2)c(Br)c1 (configuration not stated) | 34.1 µM | 60.5 µM | – | 74.9 µM | > 100 µM | > 100 µM | > 100 µM | 37.7 µM | – | – | – | – | – | – | – | – | 37.1 µM
25 | COc1cc(-c2nn(-c3cccc(NC(=O)Nc4ccc(Cl)c(C(F)(F)F)c4)c3)cc2-c2ccncc2)ccc1Cl | > 32.5 µM | 2.89 µM | – | 3.25 µM | 6.03 µM | 2.35 µM | > 32.5 µM | 2.09 µM | 1.82 µM | 0.818 µM | 0.868 µM | 1.21 µM | 0.838 µM | 0.979 µM | 0.738 µM | 1.2 µM | 4.22 µM

— PubChem BioAssay (NCI)
